One may read the hepatocyte CLint as the rate of metabolic loss divided by the concentration. The term IC50 denotes the concentration at which inhibition is half-maximal.

Read-outs that look alike come from different tables or passages of the source.

The nature of data set [1]: Clearance assay in liver cells. The data set is classed as in vitro ADME. The following applies: cryopreserved mouse liver cells (hepatocytes); mouse (ICR/CD-1, male) cryopreserved liver cells, 0-120 min. How it is done: • Liver cell type: mouse • Product catalog: M00505 • Species: ICR/CD-1 • Sex: male • Source: BioreoclmationIVT Procedures: • 1. Preparation of working solution • a. 10 mM stock solutions of test compound and positive control were prepared in an appropriate solvent (DMSO). • b. 198 μL of 50% acetonitrile/50% water and 2 μL of 10 mM solution were mixed in a separate conical tube to obtain 100 μM test compound and positive control. • 2. Preparation of liver cells • a. The incubation medium and liver cell thawing medium were placed in a 37° C. water bath, and heated for at least 15 minutes before use. • b. A vial of cryopreserved liver cells was transferred from the storage, ensuring that the vial was kept at a low temperature until the thawing process was conducted. The cells were thawed by placing the vial in a 37° C. water bath and gently shaking the vial for 2 minutes. After completion of the thawing, the vial was sprayed with 70% ethanol and transferred to a biological safety cabinet. • c. The liver cells were transferred to a 50 mL conical tube containing the thawing medium by a large-bore pipette tip. The 50 mL conical tube was placed in a centrifuge and centrifuged at 100 g for 10 minutes. After completion of the centrifugation, the thawing medium was sucked out, and the liver cells were resuspended in enough medium to produce 1.5×10^6 cells/mL. • 3. Procedures of stability assay • a. 198 μL of liver cells were pipetted into each well of a 96-well uncoated plate. The plate was placed in an incubator to warm up the liver cells for 10 minutes. • b. 2 μL of 100 μM test compound or positive control was pipetted into each well of the 96-well uncoated plate to start the reaction. The plate was placed into the incubator at the set time point. • c. The contents of the wells were transferred in 25 μL of aliquots at the time points of 0, 15, 30, 60, 90 and 120 minutes. The aliquot was mixed with 6 volumes (150 μL) of acetonitrile containing internal standard IS (100 nM alprazolam, 200 nM caffeine, and 100 nM tolbutamide) to stop the reaction. The sample was vortex-mixed for 5 minutes, and centrifuged at 3220 g for 45 minutes. An aliquot of 100 μL of supernatant was diluted with 100 μL of ultrapure water, and the mixture was used for LC/MS/MS analysis. All incubations were performed in duplicate. • d. Data analysis
All calculations were performed using Microsoft Excel. The peak area was determined by the extracted ion chromatogram. The in vitro half-life (t½) of the parent compound was determined by the regression analysis of the compound disappearance percentage versus time curve.
The in vitro half-life (t½) was determined by the slope value k: t½=0.693/k
The in vitro t½ (in minutes) was converted to in vitro intrinsic clearance (CLint, in μL/min/0.5×10^6 cells) by using the following equation (average of repeated determinations): […]

Data set [2] deals with PGE2/EP4 signal transduction in MCF7 cells. In words: Determination of MCF7 cAMP (PGE2-stimulated, HTRF). The note with it: Homo sapiens. The class given is cell-based. How it is done: • a) MCF7 cells (ATCC, 6000 cells/well/40 μl) were inoculated into a 384-well cell culture plate containing a medium (DMEM containing 10% FBS and 1×PS), and incubated overnight at 37° C. and 5% CO2. • b) The medium was removed, 40 μl/well of serum-free medium was added, and the cells were incubated at 37° C. and 5% CO2 for 5 hours. • c) The medium was replaced with 18 μL/well of HBSS buffer (Hepes 20 mM, 0.1% BSA, 500 μM IBMX). • d) The compound in DMSO was diluted (1/5 dilution, 9+0 dose). • e) 2 μL of the compound in d) was added to 98 μL of HBSS buffer. • f) 1 μL/well of the diluted compound in e) was added to the cells, with a final starting concentration of 1 μM, and the cells were incubated at 37° C. for 1 hour. • g) The cells were stimulated with 1 μL/well of PGE2 (10 mM DMSO stock solution) (final concentration: 10 nM, and DMSO final concentration: 0.2%), and incubated at 37° C. for 30 minutes. • h) After the incubation, 10 μL/well of cAMP-d2 and 10 μL/well of anti-cAMP were added, RT 1 h. • i) HTRF signals (665 nm/615 nm) were read on Envision. Data Analysis: • High control: 1 μM E7046 • Low control: DMSO • Background: 30 μL/well of lysis buffer+10 μL/well of anti-cAMP • Analytical data: original date—background Inhibition %: 100−100×(high control−analytical data)/(high control−low control)

The next data set concerns CT-26 colorectal tumor. The data set can be described thus: Inhibitory effect of compound 6 on CT-26 colorectal tumor in mouse. The class given is in vivo. How it is done:
Efficacy study on allograft tumor: each 6-week-old female BALB/c mouse was subcutaneously inoculated with 1×10^6 CT26 cancer cells (National Experimental Cell Resource Sharing Service Platform, Resource Number 3111CCCC). When the tumor reached about 60 to 80 mm^3, the tumor-bearing mice were randomly grouped to the vehicle group or treatment group. Compound 6 was administered orally (p.o.) in a 0.5% MC suspension at a dose of 10, 30 or 150 mg/kg, once a day. The mice in the vehicle group were orally administered with distilled water every day, and the administration time was the same as that of the compound 6 group. The tumor volume and body weight were recorded 2 to 3 times a week.

The mark [3] stands for this setting: MCF7 cells, 10 nM PGE2 stimulation, cAMP HTRF, read-out: MCF7 cAMP IC50.

In turn, `O=C(NC1(C23CC(C(=O)O)(C2)C3)CC1)c1cccc2ccn(Cc3ccc(C(F)(F)F)cc3)c12` [Compound 1, 3-(1-(1-(4-(Trifluoromethyl)benzyl)-1H-indole-7-carboxamido)cyclopropyl)bicyclo[1.1.1]pentane-1-carboxylic acid] had an intrinsic clearance (hepatocyte CLint) at 1 µM in data set [1] of 7.1 µL/min/1e6 cells. Moreover, the IC50 in data set [2] (setting [3]) came to 2.4 nM. For `O=C(NC1(C23CC(C(=O)O)(C2)C3)CC1)c1cccc2ccn(Cc3ccc(-c4ccccc4)cn3)c12` [Compound 2, 3-(1-(1-((5-Phenylpyridin-2-yl)methyl)-1H-indole-7-carboxamido)cyclopropyl)bicyclo[1.1.1]pentane-1-carboxylic acid], in that order: 19 µL/min/1e6 cells and 0.89 nM. Taken in the same sequence, the figures for `O=C(NC1(C23CC(C(=O)O)(C2)C3)CC1)c1cc(Cl)cc2ccn(Cc3ccc(-c4ccccc4)cn3)c12` [Compound 7, 3-(1-(5-Chloro-1-((5-phenylpyridin-2-yl)methyl)-1H-indole-7-carboxamido)cyclopropyl)bicyclo[1.1.1]pentane-1-carboxylic acid] were 34 µL/min/1e6 cells and 0.13 nM. For `O=C(NC1(C23CCC(C(=O)O)(CC2)CC3)CC1)c1cccc2ccn(Cc3ccc(C(F)(F)F)cc3)c12` [Compound 9, 4-(1-(1-(4-(Trifluoromethyl)benzyl)-1H-indole-7-carboxamido)cyclopropyl)bicyclo[2.2.2]octane-1-carboxylic acid], in that order: 20 µL/min/1e6 cells and 1.1 nM.

In turn, `O=C(NC1(C23CC(C(=O)O)(C2)C3)CC1)c1cccc2ccn(Cc3cc4cc(F)ccc4o3)c12` [Compound 21, 3-(1-(1-((5-Fluorobenzofuran-2-yl)methyl)-1H-indole-7-carboxamido)cyclopropyl)bicyclo[1.1.1]pentane-1-carboxylic acid] returned a hepatocyte CLint at 1 µM in data set [1] of 1.93 µL/min/1e6 cells. Moreover, the half-inhibitory concentration (IC50) in data set [2] (setting [3]) came to 0.9 nM. For `O=C(NC1(C23CC(C(=O)O)(C2)C3)CC1)c1cncc2ccn(Cc3cc4ccccc4o3)c12` [Compound 25, 3-(1-(1-(benzofuran-2-ylmethyl)-1H-pyrrolo[3,2-c]pyridine-7-carboxamido)cyclopropyl)bicyclo[1.1.1]pentane-1-carboxylic acid], in that order: 1.35 µL/min/1e6 cells and 1.5 nM.

On to `[2H]C([2H])(c1cc2ccccc2o1)n1ccc2cccc(C(=O)NC3(C45CC(C(=O)O)(C4)C5)CC3)c21` [Compound 30, 3-(1-(1-(1-Benzofuran-2-ylmethyl-d2)-1H-indole-7-carboxamido)cyclopropyl)bicyclo[1.1.1]pentane-1-carboxylic acid], for which the concentration for half-maximal inhibition (IC50) in data set [2] (setting [3]) was found to be 1.1 nM. Turning to `[2H]C1([2H])C([2H])([2H])C1(NC(=O)c1cccc2ccn(Cc3cc4ccccc4o3)c12)C12CC(C(=O)O)(C1)C2` [Compound 31], in data set [2] (setting [3]), the IC50 came to 1.2 nM. Same read-out and setting: in the case of `O=C(NC1(C23CC(C(=O)O)(C2)C3)CC1)c1cc(F)cc2ccn(Cc3cc4ccccc4o3)c12` [Compound 32] it was 0.75 nM. The compound `C[C@H](NC(=O)c1c(C(F)F)nn(C)c1Oc1cccc(C(F)(F)F)c1)c1ccc(C(=O)O)cc1` [Compound E7046, (S)-4-(1-(3-(difluoromethyl)-1-methyl-5-(3-(trifluoromethyl)phenoxy)-1H-pyrazole-4-carboxamido)ethyl)benzoic acid, reference compound] displayed an intrinsic clearance (hepatocyte CLint) at 1 µM in data set [1] of 20.1 µL/min/1e6 cells. In the data set on CT-26 colorectal tumor (BALB/c mice, CT26 allograft, administered alone, different doses (compound 6: 10, 30 or 150 mg/kg p.o. once a day), FIG. 1), the “effect on the growth of CT-26 tumor” value is listed as “significant inhibitory effect”. The “effect on the body weight of mouse” value in the data set with CT-26 colorectal tumor (CT-26 colorectal cancer model, FIG. 2) is given as “no significant effect”. In data set [2] (MCF7, read-out: MCF7 cAMP IC50), the IC50 is 11.2 nM.

`O=C(O)c1ccc(C2(NC(=O)c3cccc4ccn(Cc5ccc(C(F)(F)F)cc5)c34)CC2)cc1` [MF-766, 4-(1-(1-(4-(trifluoromethyl)benzyl)-1H-indole-7-carboxamido)cyclopropyl)benzoic acid, reference compound]: the hepatocyte CLint at 1 µM in data set [1] amounted to 12.5 µL/min/1e6 cells. Besides, in data set [2] (MCF7, read-out: MCF7 cAMP IC50), the IC50 worked out at 1.3 nM.

These data come from patent publication US12240812B2, “Compound for inhibiting PGE2/EP4 signaling transduction inhibiting, preparation method therefor, and medical uses thereof” (Keythera (Suzhou) Pharmaceuticals Co. Ltd., priority 2019, dated 2025).
